Measurements reported in patent publication US9131697B2, “Spirocyclic isoxazolines as antiparasitic agents” (Zoetis Services LLC, priority 2012, dated 2015).

Columns and labels:
Aedes aeqypti = test: Mosquito (Aedes aeqypti) Larval Assay - 1st Instar Larvae; conditions: first instar larvae, 25° C., motility at 24 hours, lowest dose to inhibit motility ≥50% of untreated controls, read-out: Minimum Effective Concentration (MEC)
Description: Mosquito (Aedes aeqypti) Larval Assay—1st Instar Larvae
Compounds were dissolved in DMSO and aliquots were spotted to empty wells. First instar larvae and maintenance media were added to the wells to obtain between 8 and 12 larvae per well in the appropriate final assay volume. Larvae were incubated in the treated media at 25° C. for 24 hours. Mosquito larvae motility was measured at 24 hours. Each compound was tested at half-log intervals, and endpoint results were recorded as Minimum Effective Concentration (MEC) in μM. MEC is an objective assessment of organism motility, and is the lowest dose to inhibit motility≧50% of untreated controls.

Ctenocephalides felis = test: Flea (Ctenocephalides felis) Membrane Feed Assay-Adult; conditions: adult fleas fed on treated citrated bovine blood, knockdown and/or death at 24 hours, lowest dose causing mortality ≥50%, read-out: Minimum Effective Concentration (MEC)
Description: Flea (Ctenocephalides felis) Membrane Feed Assay-Adult
Compounds of the present invention were dissolved in DMSO and aliquots added to citrated bovine blood in membrane covered wells pre-warmed to 37° C. Adult fleas were newly emerged (3-7 days) and unfed. Feeding wells containing approximately 10 adult fleas were placed onto the treated blood wells, and the fleas were allowed to feed on the treated blood for 24 hours. […] Each compound was tested at half-log intervals, and endpoint data was recorded as Minimum Effective Concentration (MEC) in μM. MEC is a subjective visual assessment of organism viability, and is the lowest dose observed to cause mortality≧50%.

Ornithidorus turicata = test: Soft Tick (Ornithidorus turicata) Blood Feed Assay; conditions: nymphs fed on treated citrated bovine blood; knockdown and/or death at 24 and 72 hours
Description: Soft Tick (Ornithidorus turicata) Blood Feed Assay
Compounds were dissolved in DMSO and aliquots were added to citrated bovine blood in membrane covered wells warmed to 37° C. 5 nymphs were placed on the membrane, allowed to feed to repleation, and were placed in observation wells. […] Endpoint results for subjective visual assessment of organism viability were recorded as LD100 (the lowest dose to cause 100% mortality).

Compound | minimal effective concentration (Aedes aeqypti) [µM] | minimal effective concentration (Ctenocephalides felis) [µM] | LD100 (the lowest dose to cause 100% mortality) (Ornithidorus turicata) [µg/mL]
CS(=O)(=O)CC(=O)N1CC2(C1)OCc1cc(C3=NOC(c4cc(Cl)cc(Cl)c4)(C(F)(F)F)C3)cnc12 (stereo not drawn) [Example 1, 3′-[5-(3,5-dichlorophenyl)-5-(trifluoromethyl)-4,5-dihydroisoxazol-3-yl]-1-[(methylsulfonyl)acetyl]-5′H-spiro[azetidin-3,7′-furo[3,4,b]pyridine]] | 0.1 | 3 | 0.1
CS(=O)(=O)CC(=O)N1CC2(C1)OCc1cc(C3=NOC(c4cc(Cl)c(F)c(Cl)c4)(C(F)(F)F)C3)cnc12 (stereo not drawn) [Example 2, 3′-[5-(3,5-dichloro-4-fluorophenyl)-5-(trifluoromethyl)-4,5-dihydroisoxazol-3-yl]-1-[(methylsulfonyl)acetyl]-5′H-spiro[azetidin-3,7-furo[3,4,b]pyridine]] | 0.03 | 1 | 0.3
CS(=O)(=O)CC(=O)N1CC2(C1)OCc1cc(C3=NOC(c4cc(Cl)c(Cl)c(Cl)c4)(C(F)(F)F)C3)cnc12 (stereo not drawn) [Example 3, 1-[(methylsulfonyl)acetyl]-3′-[5-(3,4,5-trichlorophenyl)-5-(trifluoromethyl)-4,5-dihydroisoxazol-3-yl]-5′H-spiro[azetidin-3,7′-furo[3,4,b]pyridine]] | 0.03 | 1 | 0.3
CC(C)C(=O)N1CC2(C1)OCc1cc(C3=NOC(c4cc(Cl)c(F)c(Cl)c4)(C(F)(F)F)C3)cnc12 (stereo not drawn) [Example 4, 3′-[5-(3,5-dichloro-4-fluorophenyl)-5-(trifluoromethyl)-4,5-dihydroisoxazol-3-yl]-1-isobutyryl-5′ H-spiro[azetidin-3,7′-furo[3,4,b]pyridine]] | 0.01 | 0.1 | 0.03
CC(C)C(=O)N1CC2(C1)OCc1cc(C3=NOC(c4cc(Cl)cc(Cl)c4)(C(F)(F)F)C3)cnc12 (stereo not drawn) [Example 5, 3′-[5-(3,5-dichlorophenyl)-5-(trifluoromethyl)-4,5-dihydroisoxazol-3-yl]-1-isobutyryl-5′H-spiro[azetidin-3,7′-furo[3,4,b]pyridine]] | 0.03 | 1 | 0.03
CC(C)C(=O)N1CC2(C1)OCc1cc(C3=NOC(c4cc(Cl)c(Cl)c(Cl)c4)(C(F)(F)F)C3)cnc12 (stereo not drawn) [Example 6, 1-isobutyryl-3′-[5-(3,4,5-trichlorophenyl)-5-(trifluoromethyl)-4,5-dihydroisoxazol-3-yl]-5′H-spiro[azetidin-3,7′-furo[3,4,b]pyridine]] | 0.01 | 1 | 0.03
CS(=O)(=O)CC(=O)N1CC2(C1)OCc1nc(C3=NOC(c4cc(Cl)c(F)c(Cl)c4)(C(F)(F)F)C3)ccc12 (stereo not drawn) [Example 7, 1-(2′-(5-(3,5-dichloro-4-fluorophenyl)-5-(trifluoromethyl)-4,5-dihydroisoxazol-3-yl)-7′H-spiro[azetidine-3,5′-furo[3,4-b]pyridine]-1-yl)-2-(methylsulfonyl)ethanone] | 0.3 |  | 
CS(=O)(=O)CC(=O)N1CC2(C1)OCc1nc(C3=NOC(c4cc(Cl)cc(Cl)c4)(C(F)(F)F)C3)ccc12 (stereo not drawn) [Example 8, 1-(2′-(5-(3,5-dichlorophenyl)-5-(trifluoromethyl)-4,5-dihydroisoxazol-3-yl)-7′H-spiro[azetidine-3,5′-furo[3,4-b]pyridine]-1-yl)-2-(methylsulfonyl)ethanone] | 0.3 |  | 
CS(=O)(=O)CC(=O)N1CC2(C1)OCc1nc(C3=NOC(c4cc(Cl)c(Cl)c(Cl)c4)(C(F)(F)F)C3)ccc12 (stereo not drawn) [Example 9, 2-(methylsulfonyl)-1-(2′-(5-(3,4,5-trichlorophenyl)-5-(trifluoromethyl)-4,5-dihydroisoxazol-3-yl)-7′H-spiro[azetidine-3,5′-furo[3,4-b]pyridine]-1-yl)ethanone] | 0.3 |  | 
CC(C)C(=O)N1CC2(C1)OCc1nc(C3=NOC(c4cc(Cl)c(F)c(Cl)c4)(C(F)(F)F)C3)ccc12 (stereo not drawn) [Example 10, 1-(2′-(5-(3,5-dichloro-4-fluorophenyl)-5-(trifluoromethyl)-4,5-dihydroisoxazol-3-yl)-7′H-spiro[azetidine-3,5′-furo[3,4-b]pyridine]-1-yl)-2-methylpropan-1-one] | 0.03 | 3 | 0.1
CC(C)C(=O)N1CC2(C1)OCc1nc(C3=NOC(c4cc(Cl)cc(Cl)c4)(C(F)(F)F)C3)ccc12 (stereo not drawn) [Example 11, 1-(2′-(5-(3,5-dichlorophenyl)-5-(trifluoromethyl)-4,5-dihydroisoxazol-3-yl)-7′H-spiro[azetidine-3,5′-furo[3,4-b]pyridine]-1-yl)-2-methylpropan-1-one] | 0.3 |  | 0.3
CC(C)C(=O)N1CC2(C1)OCc1nc(C3=NOC(c4cc(Cl)c(Cl)c(Cl)c4)(C(F)(F)F)C3)ccc12 (stereo not drawn) [Example 12, 2-methyl-1-(2′-(5-(3,4,5-trichlorophenyl)-5-(trifluoromethyl)-4,5-dihydroisoxazol-3-yl)-7′H-spiro[azetidine-3,5′-furo[3,4-b]pyridine]-1-yl)propan-1-one] | 0.1 |  | 0.3
CS(=O)(=O)CC(=O)N1CC2(C1)OCc1cc(C3=NOC(c4cc(Cl)c(F)c(Cl)c4)(C(F)(F)F)C3)ncc12 (stereo not drawn) [Example 13, 1-(6′-(5-(3,5-dichloro-4-fluorophenyl)-5-(trifluoromethyl)-4,5-di hydroisoxazol-3-yl)-1′H-spiro[azetidine-3,3′-furo[3,4-c]pyridine]-1-yl)-2-(methylsulfonyl)ethanone] | 0.01 | 1 | 0.1
CS(=O)(=O)CC(=O)N1CC2(C1)OCc1cc(C3=NOC(c4cc(Cl)c(Cl)c(Cl)c4)(C(F)(F)F)C3)ncc12 (stereo not drawn) [Example 14, 2-(methylsulfonyl)-1-(6′-(5-(3,4,5-trichlorophenyl)-5-(trifluoromethyl)-4,5-dihydroisoxazol-3-yl)-1′H-spiro[azetidine-3,3′-furo[3,4-c]pyridine]-1-yl)ethanone] | 0.01 | 1 | 0.3
CS(=O)(=O)CC(=O)N1CC2(C1)OCc1cc(C3=NOC(c4cc(Cl)cc(Cl)c4)(C(F)(F)F)C3)ncc12 (stereo not drawn) [Example 15, 1-(6′-(5-(3,5-dichlorophenyl)-5-(trifluoromethyl)-4,5-dihydroisoxazol-3-yl)-1′H-spiro[azetidine-3,3′-furo[3,4-c]pyridine]-1-yl)-2-(methylsulfonyl)ethanone] | 0.03 | 3 | 
CC(C)C(=O)N1CC2(C1)OCc1cc(C3=NOC(c4cc(Cl)c(F)c(Cl)c4)(C(F)(F)F)C3)ncc12 (stereo not drawn) [Example 16, 1-(6′-(5-(3,5-dichloro-4-fluorophenyl)-5-(trifluoromethyl)-4,5-dihydroisoxazol-3-yl)-1′H-spiro[azetidine-3,3′-furo[3,4-c]pyridine]-1-yl)-2-methylpropan-1-one] | 0.001 | 0.1 | 0.03
CC(C)C(=O)N1CC2(C1)OCc1cc(C3=NOC(c4cc(Cl)c(Cl)c(Cl)c4)(C(F)(F)F)C3)ncc12 (stereo not drawn) [Example 17, 2-methyl-1-(6′-(5-(3,4,5-trichlorophenyl)-5-(trifluoromethyl)-4,5-dihydroisoxazol-3-yl)-1′H-spiro[azetidine-3,3′-furo[3,4-c]pyridine]-1-yl)propan-1-one] | 0.01 | 0.1 | 0.03
CC(C)C(=O)N1CC2(C1)OCc1cc(C3=NOC(c4cc(Cl)cc(Cl)c4)(C(F)(F)F)C3)ncc12 (stereo not drawn) [Example 18, 1-(6′-(5-(3,5-dichlorophenyl)-5-(trifluoromethyl)-4,5-dihydroisoxazol-3-yl)-1′H-spiro[azetidine-3,3′-furo[3,4-c]pyridine]-1-yl)-2-methylpropan-1-one] | 0.01 | 0.3 | 0.03
